Data as given in patent WO2019242687A1, “1,3-dioxane-4,6-dione compound, and preparation method, pharmaceutical composition, and application thereof” (Shanghai Institute of Materia Medica of CAS, priority 2018, dated 2018).

Molecular target: T1, SIRT1 N346A (Homo sapiens, UniProt Q96EB6, N346A)
T1 construct: made in house
T1 sequence (Q96EB6 1-747 N346A): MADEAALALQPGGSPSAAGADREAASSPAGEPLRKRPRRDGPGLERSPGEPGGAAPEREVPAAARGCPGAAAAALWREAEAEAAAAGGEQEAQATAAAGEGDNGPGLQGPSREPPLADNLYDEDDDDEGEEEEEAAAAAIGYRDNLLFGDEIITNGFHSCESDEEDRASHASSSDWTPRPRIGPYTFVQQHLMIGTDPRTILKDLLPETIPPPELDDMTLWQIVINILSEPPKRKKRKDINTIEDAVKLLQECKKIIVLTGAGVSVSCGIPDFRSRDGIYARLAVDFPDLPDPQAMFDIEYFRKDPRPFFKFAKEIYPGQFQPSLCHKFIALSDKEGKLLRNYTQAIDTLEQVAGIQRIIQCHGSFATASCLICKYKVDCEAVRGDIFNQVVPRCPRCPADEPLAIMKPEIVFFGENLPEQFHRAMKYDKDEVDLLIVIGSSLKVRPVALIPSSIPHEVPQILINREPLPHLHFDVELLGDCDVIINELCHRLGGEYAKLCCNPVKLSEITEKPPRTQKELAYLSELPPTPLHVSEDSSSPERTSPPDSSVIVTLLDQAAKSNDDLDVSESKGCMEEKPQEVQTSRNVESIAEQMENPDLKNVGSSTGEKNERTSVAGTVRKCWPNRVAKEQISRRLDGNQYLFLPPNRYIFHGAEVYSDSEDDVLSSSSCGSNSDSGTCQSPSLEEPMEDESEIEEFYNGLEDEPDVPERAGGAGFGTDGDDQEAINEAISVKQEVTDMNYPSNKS
Experiment: Inhibitory constant on SIRT1 mutant N346A
Format: biochemical

## COc1cc(C=C2C(=O)OC(c3ccccc3)OC2=O)cc(Br)c1O (centres unmarked) [Compound S3, 5-(3-bromo-4-hydroxy-5-methoxybenzylidene) -2-phenyl-1,3-dioxane-4,6-dione]
Mutant N346A
  Ki: 2470 nM
Mutation of residue 346 (so in the source)
  sensitivity of mutant protein to compound S3: 敏感性降低
